Results from patent US20230130823A1, “PROCESS FOR THE PRODUCTION OF ANTITUMOUR PHARMACEUTICAL COMPOSITIONS USING PUSH-PULL BUTADIENES, COMPOUNDS AND USES THEREOF” (ANHANGUERA EDUCACIONAL PARTICIPAÇÕES S/A, priority 2019, published 2023).
Converted amounts (≈) assume the structure as drawn. “And” between values parts separate entries of the source, which are not always exact repeats. Equal values may be shown once.

Legend:
CaCo2 = assay: In vitro cytotoxicity, CaCo2 colon line; assay type: cell-based; conditions: Homo sapiens, Caco-2; CaCo2, colon; read-out: IC50
HT-29 = assay: In vitro cytotoxicity, HT-29 colon line; assay type: cell-based; conditions: Homo sapiens; HT-29, colon; read-out: IC50
Colo205 [1] = assay: In vitro cytotoxicity, Colo205 colon line; assay type: cell-based; conditions: Homo sapiens, COLO 205; Colo205, colon; read-out: IC50
SW620 = assay: In vitro cytotoxicity, SW620 colon line; assay type: cell-based; conditions: Homo sapiens, SW-620; SW620, colon; read-out: IC50
CRO2B = assay: In vitro cytotoxicity, CRO2B carcinoid line; assay type: cell-based; conditions: Homo sapiens, carcinoid, read-out: IC50
MIAP2 = assay: In vitro cytotoxicity, MIAP2 pancreas line; assay type: cell-based; conditions: Homo sapiens; MIAP2, pancreas; read-out: IC50
BxPC3 = assay: In vitro cytotoxicity, BxPC3 pancreas line; assay type: cell-based; conditions: Homo sapiens, BXPC-3; BxPC3, pancreas; read-out: IC50
PANC1 = assay: In vitro cytotoxicity, PANC1 pancreas line; assay type: cell-based; conditions: Homo sapiens, PANC-1; PANC1, pancreas; read-out: IC50
tumor cells line Colo205 = assay: Colo205 cell count; assay type: cell-based; conditions: compared to cells treated with culture medium only
Experimental: The compounds were tested for their ability to reduce the number of cells in the tumor, compared to cells treated with culture medium only. In Table 4, the results obtained are shown.

Colo205 [2] = assay: Determination of apoptotic cells (subG1), Colo205, flow cytometry; assay type: cell-based; conditions: sub-diploid DNA content
Excerpt: Determination of Apoptotic Cells (subG1)-Colo205
In this experiment, the proportion of apoptotic cells was identified, that is, cells showing DNA content below normal (sub-diploid) in flow cytometry testing.

Colo205 [3] = assay: Analysis of the cell cycle phases, Colo205; assay type: cell-based; conditions: for Cell cycle phase (%) G2M: G2/M phase
Excerpt: The compounds of this family were also studied for the distribution of the population of tumor cells in the different phases of the cell cycle: quiescent cells, non-proliferating (G1/G0 phase), which present DNA/RNA synthesis capacity (S phase) and cell division cells (G2/M phase).

[4] = test system: lines of human carcinoma tested; assay: In vitro cytotoxicity against the panel of human carcinoma lines; conditions: tumor cell lines of human carcinoma tested
[5] = test system: murine melanoma cells B16F10; assay: MTT cytotoxicity in B16F10 melanoma cells; assay type: cell-based; conditions: for IC50: Mus musculus, B16-F10, B16F10 melanoma, 24 hours of culture, MTT, read-out: CI50% (the source's name)
Experimental: The tumor line of murine melanoma B16F10 was donated by the Ludwig-Switzerland Institute. Adherent cell suspensions of B16F10 cells were obtained for all experimental procedures by treating culture flasks with trypsin 0.2% for 5 minutes and inactivated with 10% fetal bovine serum. The detached cells were centrifuged twice, resuspended in supplemented RPMI-1640 medium. The count was performed in Malassez chamber, and the cell concentration was adjusted in 5×10^5 cells/ml, in RPMI-1640 culture medium supplemented with 10% fetal bovine serum and 7 ug polymyxin-B (Sigma Chemical Company, St Louis Mo.-USA).
Cell viability was determined by the Trypan Blue exclusion test, being greater than 95% of viable cells. The cells were grown in plates with 96 well plate flat bottoms (Corning), at a concentration of 2×10^5 cells, maintained for 24 hours in a CO2 oven at 37° C. After this period, the plates were centrifuged for 5 minutes, at 2000 rpm at 4° C., the supernatant discarded and added different concentrations of the compounds, diluted in RPMI-1640 culture medium, supplemented and increased by 7 μg of Polymyxin-B (Sigma Chemical Company). After treatment with the various diluted compounds in complete culture medium, the cells were incubated with 0.5 mg/mL of MTT reactive.
The cell viability test was performed to verify the effect of the various compounds on the various concentrations previously established: on the lines of tumor cells B16F10 and normal human fibroblasts. The MTT method consists of a cell viability test that measures the activity of mitochondrial dehydrogenase. MTT is a colorimetric method based on the capacity of living cells to reduce salt 3-(4,5-di-methylazole-2-IL)-2,5-diphenyl tetrazolium bromide in the formazan product (Mosmann, 1983). After the cells plating (concentration of 1×10^4 per well of the culture plate) in RPMI-1640 medium and 10% SFB medium, they were maintained at 37° C. for periods of 24, 48, 72 and 96 hours. Four hours before the set time was completed, MTT 20 μL (Sigma) was added (final concentration of […]). The plates were kept in the oven for the remaining four hours. After the stipulated time, 180 μL of the supernatant were removed from each well and then added 150 μL of dimethyl sulfoxide (Sigma) homogenizing well for the complete dissolution of the salt crystals formed by the mitochondrial metabolism resulting in a staining.
The 96-well plate was read by the spectrophotometer (Spectra MAX-190) using the wavelength of 570 nm. The results were analyzed by absorbance of each well. The percentage of viability was obtained using the following formula: [(Absorbance of treated cells/Absorbance of untreated cells)×100]. The experiments were carried out in quadruplicate.
The samples of the compounds obtained by synthesis chemistry were diluted in DMSO solution at the final concentration of 10%.

[6] = test system: FN-1 (Normal human fibroblast); assay: Cytotoxicity, normal human fibroblasts; assay type: cell-based; conditions: fibroblasts
Experimental: Fragments of cutaneous biopsies from patients treated by the Dermatology Service of the Clinic Hospital of the Medicine School of USP were removed for routine diagnostic procedures and part of the surgical flap edge immersed in Eagle culture medium modified by Dulbecco's (DMEM, Sigma Chemical Co., St. Louis, Mo., USA) added of 10% fetal bovine serum (Cultilab Ltda., Campinas-SP), […] and 50 ng/ml amphotericin B at 4 C and kept at 4 C for a maximum of 16 hours.
The fragments were washed three times in the same solution, cut into fragments of approximately 1 mm^3 and transferred to 25 cm^2 culture flasks, kept at 37 C, humid atmosphere containing 5% CO2. Cell growth monitored daily, photo documented in inversion microscopy and culture medium exchanged every 2 or 3 days, according to cell metabolism.
After 7 days, the first change in the culture medium of the flasks was performed once cell growth started, the culture medium was renewed every three days. Plastic flasks were used for cultivation of 25 cm^2 of cultivated area, where more 3 ml of DME medium containing 10% fetal bovine serum and 1% of antibiotic-antimycotic solution will be added.
The cell viability test was performed to verify the effect of the various compounds on the various concentrations previously established: on the lines of tumor cells B16F10 and normal human fibroblasts. The MTT method consists of a cell viability test that measures the activity of mitochondrial dehydrogenase. MTT is a colorimetric method based on the capacity of living cells to reduce salt 3-(4,5-di-methylazole-2-IL)-2,5-diphenyl tetrazolium bromide in the formazan product (Mosmann, 1983). […]
The 96-well plate was read by the spectrophotometer (Spectra MAX-190) using the wavelength of 570 nm. The results were analyzed by absorbance of each well. The percentage of viability was obtained using the following formula: [(Absorbance of treated cells/Absorbance of untreated cells)×100]. […]

[7] = test system: 4T1 (murine mammary carcinoma); assay: Cytotoxicity, 4T1 cells; assay type: cell-based; conditions: Mus musculus, read-out: CI50% tumor cells
[8] = test system: MCF-7 (human mammary adenocarcinoma); assay: Cytotoxicity, MCF-7 cells; assay type: cell-based; conditions: MCF7, read-out: CI50% tumor cells
[9] = test system: SCC9 (squamous-cell carcinoma of the oral cavity); assay: Cytotoxicity, SCC9 cells; assay type: cell-based; conditions: Homo sapiens, SCC-9, read-out: CI50% tumor cells
[10] = test system: HUVEC (Normal human endothelial cell); assay: Cytotoxicity, HUVEC normal cells

CC(=O)c1ccc(OCC=C(C)C)cc1 [Compound 1, 4-(3-methylbut-2-enyl-oxyi)acetophenone]
IC50 (CaCo2): 759 µM | IC50 (HT-29): 455 µM | IC50 (Colo205 [1]): 1030 µM | IC50 (SW620): 980 µM | IC50 (CRO2B): 666 µM | IC50 (MIAP2): 823 µM | IC50 (BxPC3): 725 µM | IC50 (PANC1): 759 µM | Relative number of cells (% ± standard deviation) (tumor cells line Colo205): 70.2 ± 0.339% | Percentage of cells (apoptotic, subG1) (Colo205 [2]): 5.2 ± 0.566% | Cell cycle phase (%) G1/G0 (Colo205 [3]): 48.0 ± 2.54% | Cell cycle phase (%) G2M (Colo205 [3]): 5.0 ± 2.26% | Cell cycle phase (%) S (Colo205 [3]): 47.0 ± 0.28% | cytotoxic activity (in words) [4]: showed no cytotoxic activity

CC(C)=CCOc1ccc(C(C)=C(C#N)C#N)cc1 [Compound 2]
IC50 (CaCo2): 163 µM | IC50 (HT-29): 92 µM | IC50 (Colo205 [1]): 149 µM | IC50 (SW620): 134 µM | IC50 (CRO2B): 149 µM | IC50 (MIAP2): 155 µM | IC50 (BxPC3): 160 µM | IC50 (PANC1): 177 µM | Relative number of cells (% ± standard deviation) (tumor cells line Colo205): 12.7 ± 0.339% | Percentage of cells (apoptotic, subG1) (Colo205 [2]): 35.7 ± 1.485% | Cell cycle phase (%) G1/G0 (Colo205 [3]): 90.0 ± 0.91% | Cell cycle phase (%) G2M (Colo205 [3]): 0.8 ± 0.42% | Cell cycle phase (%) S (Colo205 [3]): 9.15 ± 0.49% | cytotoxic activity (in words) [4]: exhibited a better cytotoxic activity

CCSC(=CC(=C(C#N)C#N)c1ccc(OCC=C(C)C)cc1)SCC [Compound 3]
IC50 (CaCo2): 8.07 µM | IC50 (HT-29): 3.9 µM | IC50 (Colo205 [1]): 14.3 µM | IC50 (SW620): 11.7 µM | IC50 (CRO2B): 6.51 µM | IC50 (MIAP2): 3.9 µM | IC50 (BxPC3): 24.2 µM | IC50 (PANC1): 50 µM | cytotoxic activity (in words) [4]: potent cytotoxic activity

CC(=O)c1ccccc1C(=O)Oc1ccccc1 [Compound 4, 2-Acetyl Benzoate of Phenyl]
cytotoxic activity (in words) [4]: inactive

N#CC(C#N)=C/C=C(\Cl)c1ccccc1OC(=O)c1ccccc1 [Compound 6, 2-(1-chloro-4,4-dicyano-buta-1,3-dienyl)phenyl Benzoate]
IC50 (CaCo2): 9.25 µM | IC50 (HT-29): 4.47 µM | IC50 (Colo205 [1]): 16.4 µM | IC50 (SW620): 13.4 µM | IC50 (CRO2B): 7.46 µM | IC50 (MIAP2): 4.47 µM | IC50 (BxPC3): 27.7 µM | IC50 (PANC1): 57.3 µM | Relative number of cells (% ± standard deviation) (tumor cells line Colo205): 12.7 ± 0.339% | Percentage of cells (apoptotic, subG1) (Colo205 [2]): 41.8 ± 0.141% | Cell cycle phase (%) G1/G0 (Colo205 [3]): 64.3 ± 1.69% | Cell cycle phase (%) G2M (Colo205 [3]): 16.0 ± 0.28% | Cell cycle phase (%) S (Colo205 [3]): 19.7 ± 1.48% | IC50 [5]: 30.6 µg/mL and 91.6 µM | activity against fibroblasts (in words) [6]: significant activity | cytotoxic activity (in words) [4]: potent in vitro activity

O=C(Oc1ccccc1/C(Cl)=C/C=C/[N+](=O)[O-])c1ccccc1 [Compound 7, 2-(1-chloro-4-nitro-buta-1,3-dienyl)phenyl Benzoate]
activity relative to compound 6 ([5]; B16F10, compared with compound 6): almost ten times more active | IC50 [5]: 3.27 µg/mL and 9.93 µM | cytotoxic activity (in words) [4]: little antitumor activity

N#CC(C#N)=C/C=C(\Cl)c1ccc(OC(=O)c2ccccc2)cc1 [Compound 14, 4-(1-chloro-4,4-dicyano-buta-1,3-dienyl)phenyl Benzoate]
IC50 [5]: 168 µg/mL (≈ 503 µM)

O=C(Oc1ccc(/C(Cl)=C/C=C/[N+](=O)[O-])cc1)c1ccccc1 [Compound 16, 4-(1-chloro-4-nitro-buta-1,3-dienyl)phenyl Benzoate]
IC50 [5]: 34.9 µg/mL and 106 µM

CC(=O)C(=C/C=C(\Cl)c1ccc(I)cc1)C(C)=O [Compound 18, 3-acetyl-6-chloro-6-(4-iodophenyl)-hexa-3,5-diene-2-ona]
times more active ([5]; compared with the acetylacetone-derived benzoate isomers): ~7 times | IC50 [7]: 3.71 µM | IC50 [8]: 0.666 µM | IC50 [9]: 10.9 µM

COc1ccc(C(=O)/C(C#N)=C/C=C(\Cl)c2ccc(I)cc2)cc1OC [Compound 21, 5-chloro-2-(3,4-dimethoxy-benzoyl)-5-(4-iodine-phenyl)-penta-2,4-dienonitrile]
IC50 [7]: 6.44 µM | IC50 [8]: 0.293 µM | IC50 [9]: 0.858 µM | CI50% Normal cells [10]: 16.4 µM

O=CC=C(Cl)c1ccc(OC(=O)c2ccccc2)cc1OC(=O)c1ccccc1 [Compound 27, 3-Chloro-3-(2,4-benzoyloxy-phenyl)propenal]
Relative number of cells (% ± standard deviation) (tumor cells line Colo205): 32.3 ± 1.017% | Percentage of cells (apoptotic, subG1) (Colo205 [2]): 18.0 ± 0.354% | Cell cycle phase (%) G1/G0 (Colo205 [3]): 54.2 ± 0.35% | Cell cycle phase (%) G2M (Colo205 [3]): 12.4 ± 0.63% | Cell cycle phase (%) S (Colo205 [3]): 33.4 ± 0.21%

COc1cc(/C=C/C(=O)/C=C/C=C(Cl)/C=C/c2ccc(OC)c(OC)c2)ccc1O [Compound 29, (1E,4E,6Z,8E)-7-chloro-1-(4-hydroxy-3-methoxyphenyl)-9-(3,4-dimethoxyphenyl)nona-1,4,6,8-tetraen-3-ona]
IC50 [7]: 8.27 µM | IC50 [8]: 0.701 µM | IC50 [9]: 9.22 µM
